Measured values: patent publication US20250136568A1, “FUSED HETEROCYCLIC COMPOUNDS AS PI3KALPHA INHIBITORS” (Nanjing Zenshine Pharmaceuticals Co., Ltd., priority 2021, published 2025)
Where two headings read alike, the source gives them in different places.

Experiments:
[1] = system: PI3Kα wide type cell line SK-BR-3; experiment: Cell Proliferation IC50 Assay (CellTiter-Glo), SK-BR-3; assay type: cell-based; settings: Homo sapiens; SK-BR-3 (PI3Kα wild type), 72 hours, CellTiter-Glo; read-out: IC50 (μM) SK-BR-3
From the text: (§1) PI3Kα H1047R mutation cell line T-47D and MDA-MB-453, E545K mutation cell line MDA-MB-361 and PI3Kα wide type cell line SK-BR-3 were purchased from Cobioer Biotech (cat. no CBP60397, CBP60386, CBP60383 and CBP60413 respectively). The CellTiter-Glo Direct Cell Proliferation Assay Kit was purchased from Prornega (cat. No. G7573)
(§2) For cell proliferation assay in each cell line: • a. Prepare complete medium (R PMI 1640, DMEM or McCoys): Add FBS and appropriate additives according to the information sheet provided by the vendor. Mix gently. • b. Prepare single cell suspension and count the cell numbers and adjust cells to appropriate density. • c. Add 80 μL of cell suspension to 96-well opaque-walled clear bottom plates according to the planned plate layout and place the plates in the CO2 incubator overnight. • d. Prepare intermediate plate: 10 μl of diluted test compounds or staurosporine solution (200×) is added to a 96 deep well plate. Then 390 μl of culture medium without FBS is added to the respective wells. • e. Transfer 20 μL of the solutions from the above intermediate plate to the wells of the plate prepared containing 80 μL of the culture medium and cells. The total dilution is 200 folds. • f. The cells were then incubated at 5% CO2, 37° C. for 72 hours. • g. Equilibrate the plate and its contents to room temperature for approximately 30 minutes. • h. Add 100 μL of CellTiter-Glo reagent to the assay plate • i. Mix contents for 10 minutes on an orbital shaker to induce cell lysis. • j. Allow the plate to incubate at room temperature for 10 minutes to stabilize luminescent signal, • k. Paste the clear bottom with white back seal and record luminescence with Varioskan LUX plate reader.
(§3) Inhibition % and IC50 value were calculated by the formula described below: […]

[2] = system: PI3Kα H1047R mutation cell line T-47D; experiment: Cell Proliferation IC50 Assay (CellTiter-Glo), T-47D; assay type: cell-based; settings: Homo sapiens, T47D (H1047R), 72 hours, CellTiter-Glo, read-out: IC50 (μM) T47D
From the text: as §1, §2, §3

Q: What does the source list for `Cc1cc([C@H](C)Nc2ccccc2C(=O)O)c2oc(-c3ccc(-c4cnn(C)c4)cc3)cc(=O)c2c1` (single isomer, unassigned) [Example 95B]?
A: IC50 [1]: > 10 µM; IC50 ([2]; T47D, 72 h): 0.99 µM

Q: For `Cc1cc([C@@H](C)Nc2ccccc2C(=O)O)c2oc(-c3ccc(Cn4ccnc4)cc3)c(C)c(=O)c2c1` [Example 146, (R)-2-((1-(2-(4-((1H-imidazol-1-yl)methyl)phenyl)-3,6-dimethyl-4-oxo-4H-chromen-8-yl)ethyl)amino)benzoic acid], which IC50 [1] is on record?
A: Its IC50 is over 10 µM.

Q: And the IC50 ([2]; T47D, 72 h)?
A: The IC50 was 0.18 µM.

Q: What does the source list for `Cc1cc(C(C)Nc2ncccc2C(=O)O)c2oc(-c3ccc4nn(C)cc4c3)cc(=O)c2c1` (stereo not drawn) [Example 113, 2-((1-(6-methyl-2-(2-methyl-2H-indazol-5-yl)-4-oxo-4H-chromen-8-yl)ethyl)amino)nicotinic acid]?
A: IC50 [1]: > 10 µM; IC50 ([2]; T47D, 72 h): 0.67 µM

Q: Which IC50 [1] does the source give for `Cc1cc([C@@H](C)Nc2ccccc2C(=O)NS(=O)(=O)C2CC2)c2oc(-c3ccc4nn(C)cc4c3)cc(=O)c2c1` [Example 157, (R)—N-(cyclopropylsulfonyl)-2-((1-(6-methyl-2-(2-methyl-2H-indazol-5-yl)-4-oxo-4H-chromen-8-yl)ethyl)amino)benzamide] here?
A: Its IC50 is over 10 µM.

Q: And the IC50 ([2]; T47D, 72 h)?
A: Its IC50 is 3.43 µM.

Q: With `Cc1cc([C@@H](C)Nc2ccccc2C(=O)O)c2oc(-c3ccc(OCCN4CCOCC4)cc3)c(C)c(=O)c2c1` [Example 141, (R)-2-((1-(3,6-dimethyl-2-(4-(2-morpholinoethoxy)phenyl)-4-oxo-4H-chromen-8-yl)ethyl)amino)benzoic acid] as the compound, how does the IC50 [1] read?
A: The IC50 was over 10 µM.

Q: What about the IC50 ([2]; T47D, 72 h) of the same compound?
A: Its IC50 is 0.044 µM.

Q: How did the IC50 [1] turn out when `Cc1cc(C(C)Nc2cnccc2C(=O)O)c2oc(-c3ccc4nn(C)cc4c3)cc(=O)c2c1` (stereo not drawn) [Example 112, 3-((1-(6-methyl-2-(2-methyl-2H-indazol-5-yl)-4-oxo-4H-chromen-8-yl)ethyl)amino)isonicotinic acid] was run?
A: Its IC50 is over 10 µM.

Q: What about the IC50 ([2]; T47D, 72 h) of the same compound?
A: Its IC50 is over 10 µM.

Q: Which results are given for `CCn1cc2cc(-c3cc(=O)c4cc(C)cc(C(C)Nc5ccccc5C(=O)O)c4o3)ccc2n1` (stereo not drawn) [Example 93, 2-((1-(2-(2-ethyl-2H-indazol-5-yl)-6-methyl-4-oxo-41H-chromen-8-yl)ethyl)amino)benzoic acid]?
A: IC50 [1]: > 10 µM; IC50 ([2]; T47D, 72 h): 0.31 µM

Q: For `Cc1cc(C(C)Nc2ccccc2C(=O)O)c2oc(-c3cc(F)c4nn(C)cc4c3)cc(=O)c2c1` (stereo not drawn) [Example 85, 2-((1-(2-(7-fluoro-2-methy-2H-indazol-5-yl)-6-methyl-4-oxo-4H-chromen-8-yl)ethyl)amino)benzoic acid], which IC50 [1] is on record?
A: Its IC50 is over 10 µM.

Q: And the IC50 ([2]; T47D, 72 h)?
A: The IC50 was 0.13 µM.

Q: For `CC(=O)N1CC(c2ccc(-c3cc(=O)c4cc(C)cc(C(C)Nc5ccccc5C(=O)O)c4o3)cc2)C1` (stereo not drawn) [Example 145, 2-((1-(2-(4-(1-acetylazetidin-3-yl)phenyl)-6-methyl-4-oxo-4H-chromen-8-yl)ethyl)amino)benzoic acid], which IC50 [1] is on record?
A: Its IC50 is over 10 µM.

Q: What about the IC50 ([2]; T47D, 72 h) of the same compound?
A: The IC50 was 1.6 µM.

Q: `Cc1cc([C@@H](C)Nc2ccccc2C(=O)NS(C)(=O)=O)c2oc(-c3ccc4nn(C)cc4c3)cc(=O)c2c1` [Example 158, (R)-2-((1-(6-methyl-2-(2-methyl-2H-indazol-5-yl)-4-oxo-4H-chromen-8-yl)ethyl)amino)-N-(methylsulfonyl)benzamide] was tested. Which IC50 [1] did it give?
A: Its IC50 is over 10 µM.

Q: What about the IC50 ([2]; T47D, 72 h) of the same compound?
A: Its IC50 is 5.5 µM.

Q: Which results are given for `Cc1cc([C@@H](C)Nc2ccccc2C(=O)O)c2oc(-c3ccc(OCCN(C)C)cc3)cc(=O)c2c1` [Example 166, (R)-2-((1-(2-(4-(2-(dimethylamino)ethoxy)phenyl)-6-methyl-4-oxo-4H-1-chromen-8-yl)ethyl)amino)benzoic acid]?
A: IC50 [1]: > 10 µM; IC50 ([2]; T47D, 72 h): 0.23 µM

Q: `Cc1cc(C(C)Nc2ccccc2C(=O)O)c2oc(-c3cc4cnccc4[nH]3)cc(=O)c2c1` (stereo not drawn) [Example 116] was tested. Which IC50 [1] did it give?
A: The IC50 was over 10 µM.

Q: What about the IC50 ([2]; T47D, 72 h) of the same compound?
A: Its IC50 is 0.97 µM.

Q: `Cc1cc(C(C)Nc2ccccc2C(=O)O)c2oc(-c3ccc(-n4ccnc4)cc3)cc(=O)c2c1` (stereo not drawn) [Example 143, 2-((1-(2-(4-(1H-imidazol-1-yl)phenyl)-6-methyl-4-oxo-4H-chromen-8-yl)ethyl)amino)benzoic acid] was tested. Which IC50 [1] did it give?
A: The IC50 was over 10 µM.

Q: And the IC50 ([2]; T47D, 72 h)?
A: Its IC50 is 0.25 µM.

Q: For `CNC(=O)c1ccccc1N[C@H](C)c1cc(C)cc2c(=O)c(C)c(-c3ccc(-c4cnn(C)c4)nc3)oc12` [Example 191, (R)-2-((1-(3,6-dimethyl-2-(6-(1-methyl-1H-pyrazol-4-yl)pyridin-3-yl)-4-oxo-4H-chromen-8-yl)ethyl)amino)-N-methylbenzamide], which IC50 [1] is on record?
A: Its IC50 is 2.02 µM.

Q: What about the IC50 ([2]; T47D, 72 h) of the same compound?
A: Its IC50 is 0.27 µM.

Q: For `Cc1cc([C@@H](C)Nc2ccccc2C(=O)O)c2oc(-c3ccc(-c4cn(C)cn4)nc3)c(C)c(=O)c2c1` [Example 163], which IC50 [1] is on record?
A: Its IC50 is over 10 µM.

Q: What about the IC50 [2] of the same compound?
A: The IC50 was 0.12 µM.

Q: Which IC50 [1] does the source give for `Cc1cc(C(C)Nc2cccnc2C(=O)O)c2oc(-c3ccc4nn(C)cc4c3)cc(=O)c2c1` (stereo not drawn) [Example 114, 3-((1-(6-methyl-2-(2-methyl-21-indazol-5-yl)-4-oxo-4H-chromen-8-yl)ethyl)amino)picolinic acid] here?
A: Its IC50 is over 10 µM.

Q: And the IC50 ([2]; T47D, 72 h)?
A: The IC50 was 0.46 µM.

Q: What does the source list for `Cc1cc(C(C)Nc2ccccc2C(=O)O)c2oc(-c3cc4ccncc4[nH]3)cc(=O)c2c1` (stereo not drawn) [Example 117, 2-((1-(6-methyl-4-oxo-2-(1H-pyrrolo[2,3-c]pyridin-2-yl)-4H-chromen-8-yl)ethyl)amino)benzoic acid]?
A: IC50 [1]: > 10 µM; IC50 ([2]; T47D, 72 h): 0.28 µM

Q: Which IC50 [1] does the source give for `CC(=O)N1CCN(Cc2ccc(-c3oc4c([C@@H](C)Nc5ccccc5C(=O)O)cc(C)cc4c(=O)c3C)cc2)CC1` [Example 137, (R)-2-((1-(2-(4-((4-acetylpiperazin-1-yl)methyl)phenyl)-3,6-dimethyl-4-oxo-4H-chromen-8-yl)ethyl)amino)benzoic acid] here?
A: The IC50 was over 10 µM.

Q: And the IC50 ([2]; T47D, 72 h)?
A: Its IC50 is 0.19 µM.

Q: Which IC50 [1] does the source give for `Cc1cc([C@@H](C)Nc2ccccc2C(=O)O)c2oc(-c3ccc(N4CC[C@H](N(C)C)C4)cc3)c(C)c(=O)c2c1` [Example 169, 2-(((R)-1-(2-(4-((S)-3-(dimethylamino)pyrrolidin-1-yl)phenyl)-3,6-dimethyl-4-oxo-4H-chromen-8-yl)ethyl)amino)benzoic acid] here?
A: Its IC50 is over 10 µM.

Q: And the IC50 ([2]; T47D, 72 h)?
A: Its IC50 is 0.11 µM.

Q: What does the source list for `CC(=O)N1CCN(c2ccc(-c3oc4c(C(C)Nc5ccccc5S(N)(=O)=O)cc(C)cc4c(=O)c3C)cc2)CC1` (stereo not drawn) [Example 159, 2-((1-(2-(4-(4-acetylpiperazin-1-yl)phenyl)-3,6-dimethyl-4-oxo-4H-chromen-8-yl)ethyl)amino)benzenesulfonamide]?
A: IC50 [1]: > 10 µM; IC50 ([2]; T47D, 72 h): 0.41 µM

Q: `Cc1cc(C(C)Nc2ccccc2C(=O)O)c2oc(-c3ccc4c(c3)CNC4=O)cc(=O)c2c1` (stereo not drawn) [Example 5, 2-((1-(6-methyl-4-oxo-2-(1-oxoisoindolin-5-yl)-4H-chromen-8-yl)ethyl)amino)benzoic acid] was tested. Which IC50 [1] did it give?
A: The IC50 was over 10 µM.

Q: And the IC50 ([2]; T47D, 72 h)?
A: The IC50 was 1.54 µM.

Q: `Cc1cc(C(C)Nc2ccccc2-c2nc(=O)o[nH]2)c2oc(-c3ccc4nn(C)cc4c3)c(C)c(=O)c2c1` (stereo not drawn) [Example 177, 3-(2-((1-(3,6-dimethyl-2-(2-methyl-2H-indazol-5-yl)-4-oxo-4H-chromen-8-yl)ethyl)amino)phenyl)-1,2,4-oxadiazol-5(2H)-one] was tested. Which IC50 [1] did it give?
A: The IC50 was over 10 µM.

Q: And the IC50 ([2]; T47D, 72 h)?
A: Its IC50 is 0.31 µM.

Q: With `Cc1cc(C(C)Nc2ccccc2C(=O)O)c2oc(-c3ccc(-c4cn(C)cn4)cc3)cc(=O)c2c1` (stereo not drawn) [Example 144, 2-((1-(6-methyl-2-(4-(1-methyl-1H-imidazol-4-yl)phenyl)-4-oxo-4H-chromen-8-yl)ethyl)amino)benzoic acid] as the compound, how does the IC50 [1] read?
A: Its IC50 is over 10 µM.

Q: What about the IC50 ([2]; T47D, 72 h) of the same compound?
A: Its IC50 is 0.14 µM.

Q: `Cc1cc([C@@H](C)Nc2ccccc2C(=O)O)c2oc(-c3ccc(CN4CCN(C)CC4)nc3)c(C)c(=O)c2c1` [Example 188, (R)-2-((1-(3,6-dimethyl-2-(6-((4-methylpiperazin-1-yl)methyl)pyridin-3-yl)-4-oxo-4H-chromen-8-yl)ethyl)amino)benzoic acid] was tested. Which IC50 [1] did it give?
A: The IC50 was over 10 µM.

Q: And the IC50 ([2]; T47D, 72 h)?
A: The IC50 was 0.13 µM.

Q: With `Cc1cc([C@@H](C)Nc2ccccc2C(=O)O)c2oc(-c3ccc(-c4cn(C)cn4)cc3)c(C)c(=O)c2c1` [Example 162, (R)-2-((1-(3,6-dimethyl-2-(4-(1-methyl-1H-imidazol-4-yl)phenyl)-4-oxo-4H-chromen-8-yl)ethyl)amino)benzoic acid] as the compound, how does the IC50 [1] read?
A: The IC50 was over 10 µM.

Q: What about the IC50 ([2]; T47D, 72 h) of the same compound?
A: Its IC50 is 0.23 µM.

Q: For `Cc1cc(C(C)Nc2ccccc2C(=O)O)c2oc(-c3ccc(N4CCNCC4)cc3)cc(=O)c2c1` (stereo not drawn) [Example 41, 2-((1-(6-methyl-4-oxo-2-(4-(piperazin-1-yl)phenyl)-4H-chromen-8-yl)ethyl)amino)benzoic acid], which IC50 [1] is on record?
A: Its IC50 is over 10 µM.

Q: What about the IC50 ([2]; T47D, 72 h) of the same compound?
A: The IC50 was 1.43 µM.

Q: Which IC50 [1] does the source give for `Cc1cc(C(C)Nc2ccccc2C(=O)O)c2oc(-c3ccc(N4CCC(F)(F)CC4)cc3)cc(=O)c2c1` (stereo not drawn) [Example 43, 2-((1-(2-(4-(4,4-difluoropiperidin-1-yl)phenyl)-6-methyl-4-oxo-4H-chromen-8-yl)ethyl)amino)benzoic acid] here?
A: The IC50 was over 10 µM.

Q: And the IC50 ([2]; T47D, 72 h)?
A: Its IC50 is 0.28 µM.
